Laboratory results taken from patent publication US20190374518A1, “TREATMENT OF MIGRAINE” (Allergan Pharmaceuticals International Limited, priority 2018, published 2019).

Columns and labels:
[1] = Study A: randomized, double-blind, placebo-controlled study, acute treatment of a single migraine attack; assay type: in vivo, human; conditions: for Absence of Most-Bothersome Migraine Associated Symptom at 2 hours after the initial dose: Odds Ratio (95% CI) / Pain Freedom at 2 hours after the initial dose: Odds Ratio (95% CI): mITT
Protocol: (§1) Study A and Study B were multicenter, randomized, double-blind, placebo-controlled, parallel-group, studies designed to evaluate the efficacy, safety, and tolerability of three doses of ubrogepant (25 mg, 50 mg and 100 mg) compared to placebo for the acute treatment of a single migraine attack. In Study A, patients were randomized (1:1:1) to 1 of 3 treatment groups: placebo, ubrogepant 50 mg, or ubrogepant 100 mg. In Study B, patients were randomized (1:1:1) to 1 of 3 treatment groups: placebo, ubrogepant 25 mg, or ubrogepant 50 mg. Patients were stratified by their previous response to triptans (triptan responder, triptan insufficient responder, triptan naïve) and their current use of prophylactic concomitant medication for migraine (yes/no). To be randomized, eligible patients had to be 18 to 75 years of age (inclusive), have a history of migraine with or without aura for at least 1 year consistent with a diagnosis according to the International Classification of Headache Disorders criteria, 3rd edition, beta version, and had to have experienced between 2 to 8 migraine attacks with moderate to severe headache pain in each of the 3 months before Screening (Visit 1). Patients who had clinically significant hematologic, endocrine, cardiovascular, cerebrovascular, pulmonary, renal, hepatic, gastrointestinal, or neurologic disease were excluded from the study. Study patients randomized to a treatment group had up to 60 days to treat a single qualifying migraine attack of moderate or severe pain intensity at home. In Study A, a total of 1672 patients were randomized to double-blind treatment (ITT population), and 1436 patients took at least 1 dose of double-blind IP (safety population). A total of 1327 treated patients recorded a baseline migraine headache severity measurement and at least 1 postdose migraine headache severity or migraine-associated symptom measurement within 2 hours after dosing (mITT population). In Study B, a total of 1,686 patients were randomized to double-blind treatment (ITT population), and 1,465 patients took at least 1 dose of double-blind IP (safety population). A total of 1355 treated patients recorded a baseline migraine headache severity measurement and at least 1 postdose migraine headache severity or migraine-associated symptom measurement within 2 hours after dosing (mITT population). The coprimary efficacy endpoints for the United States were pain freedom (PF) at 2 hours after the initial dose, defined as a reduction in headache severity from moderate/severe at baseline to no pain, at 2 hours after the initial dose and absence of the most bothersome migraine-associated symptom at 2 hours after the initial dose. The most bothersome migraine-associated symptom was identified at baseline for each patient.

[2] = Study B: randomized, double-blind, placebo-controlled study, acute treatment of a single migraine attack; assay type: in vivo, human; conditions: for Absence of Most-Bothersome Migraine Associated Symptom at 2 hours after the initial dose: Odds Ratio (95% CI) / Pain Freedom at 2 hours after the initial dose: Odds Ratio (95% CI): mITT
Protocol: as §1

[3] = 50 mg vs placebo, Triptan Insufficient Responder
[4] = 50 mg vs placebo, Triptan Naïve
[5] = 50 mg vs placebo, Triptan Responder
[6] = 100 mg vs placebo, Triptan Insufficient Responder
[7] = 100 mg vs placebo, Triptan Naïve
[8] = 100 mg vs placebo, Triptan Responder
[9] = 100 mg, Triptan Insufficient Responder, N1=126, mITT
[10] = 100 mg, Triptan Naïve, N1=149, mITT
[11] = 100 mg, Triptan Responder, N1=173, mITT
[12] = 25 mg vs placebo, Triptan Insufficient Responder
[13] = 25 mg vs placebo, Triptan Responder
[14] = 25 mg, Triptan Insufficient Responder, N1=100, mITT
[15] = 50 mg, Triptan Insufficient Responder, N1=110, mITT
[16] = 50 mg, Triptan Responder, N1=160, mITT

In the case of `C[C@@H]1[C@H](c2ccccc2)C[C@H](NC(=O)c2cnc3c(c2)C[C@@]2(C3)C(=O)Nc3ncccc32)C(=O)N1CC(F)(F)F` [Ubrogepant, ubrogepant], the “Absence of Most-Bothersome Migraine Associated Symptom at 2 hours after the initial dose: Odds Ratio (95% CI)” value (shortened to “Absence … Odds Ratio (95% CI)”) [1, 3] is reported as 1.80, the “Pain Freedom at 2 hours after the initial dose: Odds Ratio (95% CI)” value (from here on “Pain Freedom at 2 hours … Odds Ratio (95% CI)”) [1, 3] is reported as 2.41 and the “Absence … Odds Ratio (95% CI)” value [1, 4] is reported as 1.48. The “Pain Freedom at 2 hours … Odds Ratio (95% CI)” value [1, 4] was 1.60, the “Absence … Odds Ratio (95% CI)” value [1, 5] was 1.85 and the “Pain Freedom at 2 hours … Odds Ratio (95% CI)” value [1, 5] was 1.86. The “Absence of Most-Bothersome Migraine Associated Symptom at 2 hours after the initial dose: Responder rate (in parentheses)” value (shortened to “Absence … (in parentheses)”) ([1]; 50 mg, Triptan Insufficient Responder, N1=116, mITT) was “(33.6)”, the “Pain Freedom at 2 hours after the initial dose: Responder rate (in parentheses)” value (from here on “Pain Freedom at 2 hours … (in parentheses)”) ([1]; 50 mg, Triptan Insufficient Responder, N1=118, mITT) was “(13.6)” and the “Absence … (in parentheses)” value ([1]; 50 mg, Triptan Naïve, N1=132, mITT) was “(42.4)”. The “Pain Freedom at 2 hours … (in parentheses)” value ([1]; 50 mg, Triptan Naïve, N1=133, mITT) was “(24.8)”, the “Pain Freedom at 2 hours … (in parentheses)” value ([1]; 50 mg, Triptan Responder, N1=171, mITT) was “(18.7)” and the “Absence … (in parentheses)” value ([1]; 50 mg, Triptan Responder, N1=172, mITT) was “(39.0)”. For the same compound, the “Absence … Odds Ratio (95% CI)” value [1, 6] was 1.50, the “Pain Freedom at 2 hours … Odds Ratio (95% CI)” value [1, 6] was 2.49 and the “Absence … Odds Ratio (95% CI)” value [1, 7] was 1.22. The “Pain Freedom at 2 hours … Odds Ratio (95% CI)” value [1, 7] was 1.26, the “Absence … Odds Ratio (95% CI)” value [1, 8] was 2.18 and the “Pain Freedom at 2 hours … Odds Ratio (95% CI)” value [1, 8] was 2.89. The “Absence … (in parentheses)” value [1, 9] was “(30.2)”, the “Pain Freedom at 2 hours … (in parentheses)” value [1, 9] was “(14.3)” and the “Absence … (in parentheses)” value [1, 10] was “(37.6)”. The “Pain Freedom at 2 hours … (in parentheses)” value [1, 10] was “(20.8)”, the “Absence … (in parentheses)” value [1, 11] was “(43.4)” and the “Pain Freedom at 2 hours … (in parentheses)” value [1, 11] was “(26.6)”. For the same compound, the “Absence … Odds Ratio (95% CI)” value [2, 12] was 1.65, the “Pain Freedom at 2 hours … Odds Ratio (95% CI)” value [2, 12] was 1.81 and the “Absence … Odds Ratio (95% CI)” value ([2]; 25 mg vs placebo, Triptan Naive) was 1.32. For the same compound, the “Pain Freedom at 2 hours … Odds Ratio (95% CI)” value ([2]; 25 mg vs placebo, Triptan Naïve) was 1.50, the “Absence … Odds Ratio (95% CI)” value [2, 13] was 1.26 and the “Pain Freedom at 2 hours … Odds Ratio (95% CI)” value [2, 13] was 1.52. For the same compound, the “Absence … (in parentheses)” value [2, 14] was “(37.0)”, the “Pain Freedom at 2 hours … (in parentheses)” value [2, 14] was “(18.0)” and the “Absence … (in parentheses)” value ([2]; 25 mg, Triptan Naive, N1=184, mITT) was “(34.2)”. The “Pain Freedom at 2 hours … (in parentheses)” value ([2]; 25 mg, Triptan Naïve, N1=184, mITT) was “(25.5)”, the “Absence … (in parentheses)” value ([2]; 25 mg, Triptan Responder, N1=150, mITT) was “(32.0)” and the “Pain Freedom at 2 hours … (in parentheses)” value ([2]; 25 mg, Triptan Responder, N1=151, mITT) was “(16.6)”. For the same compound, the “Absence … Odds Ratio (95% CI)” value [2, 3] was 1.72, the “Pain Freedom at 2 hours … Odds Ratio (95% CI)” value [2, 3] was 1.97 and the “Absence … Odds Ratio (95% CI)” value ([2]; 50 mg vs placebo, Triptan Naive) was 1.54. For the same compound, the “Pain Freedom at 2 hours … Odds Ratio (95% CI)” value [2, 4] was 1.22, the “Absence … Odds Ratio (95% CI)” value [2, 5] was 1.76 and the “Pain Freedom at 2 hours … Odds Ratio (95% CI)” value [2, 5] was 2.19. For the same compound, the “Absence … (in parentheses)” value [2, 15] was “(38.2)”, the “Pain Freedom at 2 hours … (in parentheses)” value [2, 15] was “(19.1)” and the “Absence … (in parentheses)” value ([2]; 50 mg, Triptan Naive, N1=193, mITT) was “(39.4)”. The “Pain Freedom at 2 hours … (in parentheses)” value ([2]; 50 mg, Triptan Naïve, N1=194, mITT) was “(23.2)”, the “Absence … (in parentheses)” value [2, 16] was “(38.8)” and the “Pain Freedom at 2 hours … (in parentheses)” value [2, 16] was “(21.9)”.
